From patent publication US10875875B2, “Propionic acid derivatives and methods of use thereof” (Aviara Pharmaceuticals, Inc., priority 2017, dated 2020)

Target: α4β1 (Homo sapiens, UniProt P05556+P13612)
Assay: α4β1 integrin inhibition, IC50
Type: binding
Details: read-out: α4β1 IC50

Sequence of α4β1 (P13612 34-1032): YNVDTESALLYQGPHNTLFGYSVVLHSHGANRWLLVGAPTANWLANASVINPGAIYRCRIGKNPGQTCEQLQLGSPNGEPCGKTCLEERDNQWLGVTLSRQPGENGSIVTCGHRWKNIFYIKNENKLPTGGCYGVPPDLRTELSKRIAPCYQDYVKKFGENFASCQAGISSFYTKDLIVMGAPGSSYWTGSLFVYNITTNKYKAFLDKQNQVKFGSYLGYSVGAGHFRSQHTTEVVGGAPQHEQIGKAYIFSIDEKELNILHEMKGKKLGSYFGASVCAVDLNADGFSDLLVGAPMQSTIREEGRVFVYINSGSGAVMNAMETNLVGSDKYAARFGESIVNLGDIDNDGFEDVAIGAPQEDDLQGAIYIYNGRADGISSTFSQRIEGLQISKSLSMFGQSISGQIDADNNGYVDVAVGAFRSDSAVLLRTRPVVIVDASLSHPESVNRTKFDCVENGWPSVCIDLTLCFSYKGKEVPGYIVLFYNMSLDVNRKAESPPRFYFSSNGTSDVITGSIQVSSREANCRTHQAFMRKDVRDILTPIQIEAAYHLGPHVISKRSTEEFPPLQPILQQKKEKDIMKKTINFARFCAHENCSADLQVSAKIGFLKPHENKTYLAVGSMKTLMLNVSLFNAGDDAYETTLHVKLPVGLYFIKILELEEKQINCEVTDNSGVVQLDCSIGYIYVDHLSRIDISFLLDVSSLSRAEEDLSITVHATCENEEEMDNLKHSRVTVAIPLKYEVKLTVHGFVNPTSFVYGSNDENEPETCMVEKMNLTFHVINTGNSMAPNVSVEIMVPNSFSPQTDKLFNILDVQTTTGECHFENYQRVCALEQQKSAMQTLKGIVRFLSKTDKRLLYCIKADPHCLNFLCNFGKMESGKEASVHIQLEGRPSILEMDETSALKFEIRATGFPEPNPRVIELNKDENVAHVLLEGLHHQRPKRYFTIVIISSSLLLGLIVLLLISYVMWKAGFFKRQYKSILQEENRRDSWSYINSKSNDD
Sequence of α4β1 (P05556 21-798): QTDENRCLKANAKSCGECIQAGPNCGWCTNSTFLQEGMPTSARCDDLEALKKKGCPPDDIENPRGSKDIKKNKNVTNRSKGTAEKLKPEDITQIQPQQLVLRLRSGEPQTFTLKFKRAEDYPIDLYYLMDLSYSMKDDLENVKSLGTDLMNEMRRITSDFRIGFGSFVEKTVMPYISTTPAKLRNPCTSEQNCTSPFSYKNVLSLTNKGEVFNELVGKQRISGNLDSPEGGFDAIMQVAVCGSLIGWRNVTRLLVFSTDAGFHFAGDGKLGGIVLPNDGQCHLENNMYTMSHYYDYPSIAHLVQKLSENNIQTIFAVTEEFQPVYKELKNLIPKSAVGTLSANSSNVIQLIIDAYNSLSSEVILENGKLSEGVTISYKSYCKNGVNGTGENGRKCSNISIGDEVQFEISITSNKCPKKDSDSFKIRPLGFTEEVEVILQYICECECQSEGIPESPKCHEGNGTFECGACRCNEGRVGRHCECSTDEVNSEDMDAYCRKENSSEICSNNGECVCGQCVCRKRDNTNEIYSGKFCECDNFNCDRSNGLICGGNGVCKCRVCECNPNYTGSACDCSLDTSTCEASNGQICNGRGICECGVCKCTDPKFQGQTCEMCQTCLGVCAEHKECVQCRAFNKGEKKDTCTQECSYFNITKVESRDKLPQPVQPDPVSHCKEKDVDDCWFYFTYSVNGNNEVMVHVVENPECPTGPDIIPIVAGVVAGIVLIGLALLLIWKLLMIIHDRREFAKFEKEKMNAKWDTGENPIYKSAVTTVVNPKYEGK

SMILES | IC50 [nM]
Cn1ncc(O)c(NC(=O)N[C@@H](CC(=O)O)c2cccc(-c3ccc(F)cc3F)c2)c1=O [1-549, sodium (S)-3-(2′,4′-difluorobiphenyl-3-yl)-3-(3-(2-methyl-5-oxido-3-oxo-2,3-dihydropyridazin-4-yl)ureido)propanoate] | < 20
COc1cccc(-c2cc([C@H](CC(=O)O)NC(=O)Nc3c(O)cc(C)n(C)c3=O)ccc2OC)c1 [1-551, sodium (S)-3-(3′,6-dimethoxybiphenyl-3-yl)-3-(3-(1,6-dimethyl-4-oxido-2-oxo-1,2-dihydropyridin-3-yl)ureido)propanoate] | < 20
Cc1cc(O)c(NC(=O)N[C@@H](CC(=O)O)c2cc(-c3ccc(F)cc3F)cs2)c(=O)n1C [1-552, sodium (S)-3-(4-(2,4-difluorophenyl)thiophen-2-yl)-3-(3-(1,6-dimethyl-4-oxido-2-oxo-1,2-dihydropyridin-3-yl)ureido)propanoate] | < 20
COc1cccc(-c2cccc([C@H](CC(=O)O)NC(=O)Nc3c(O)cc(C)n(C)c3=O)c2)c1 [1-553, sodium (S)-3-(3-(1,6-dimethyl-4-oxido-2-oxo-1,2-dihydropyridin-3-yl)ureido)-3-(3′-methoxybiphenyl-3-yl)propanoate] | < 20
COc1ccc([C@H](CC(=O)O)NC(=O)Nc2c(O)cc(C)n(C)c2=O)cc1-c1cccc(OC(F)(F)F)c1 [1-554, sodium (S)-3-(3-(1,6-dimethyl-4-oxido-2-oxo-1,2-dihydropyridin-3-yl)ureido)-3-(6-methoxy-3′-(trifluoromethoxy)biphenyl-3-yl)propanoate] | < 20
Cc1ccc([C@H](CC(=O)O)NC(=O)Nc2c(O)ccn(C)c2=O)cc1-c1cccc(Cl)c1 [1-555, sodium (S)-3-(3′-chloro-6-methylbiphenyl-3-yl)-3-(3-(1-methyl-4-oxido-2-oxo-1,2-dihydropyridin-3-yl)ureido)propanoate] | < 20
Cc1cc(O)c(NC(=O)N[C@@H](CC(=O)O)c2cccc(-c3cccc(Cl)c3)c2)c(=O)n1C [1-556, sodium (S)-3-(3′-chlorobiphenyl-3-yl)-3-(3-(1,6-dimethyl-4-oxido-2-oxo-1,2-dihydropyridin-3-yl)ureido)propanoate] | < 20
Cc1cc(O)c(NC(=O)N[C@@H](CC(=O)O)c2cccc(-c3ccc(F)cc3F)c2)c(=O)[nH]1 [1-557, sodium (S)-3-(2′,4′-difluorobiphenyl-3-yl)-3-(3-(6-methyl-4-oxido-2-oxo-1,2-dihydropyridin-3-yl)ureido)propanoate] | > 200
COc1cc(-c2ccccc2)cc([C@H](CC(=O)O)NC(=O)Nc2c(O)ccn(C)c2=O)c1 [1-558, sodium (S)-3-(5-methoxybiphenyl-3-yl)-3-(3-(1-methyl-4-oxido-2-oxo-1,2-dihydropyridin-3-yl)ureido)propanoate] | < 20
Cn1ccc(O)c(NC(=O)N[C@@H](CC(=O)O)c2cccc(-c3ccoc3)c2)c1=O [1-559, sodium (S)-3-(3-(furan-3-yl)phenyl)-3-(3-(1-methyl-4-oxido-2-oxo-1,2-dihydropyridin-3-yl)ureido)propanoate] | < 20
COc1cccc(-c2ccc([C@H](CC(=O)O)NC(=O)Nc3c(O)ccn(C)c3=O)s2)c1 [1-563, sodium (S)-3-(5-(3-methoxyphenyl)thiophen-2-yl)-3-(3-(1-methyl-4-oxido-2-oxo-1,2-dihydropyridin-3-yl)ureido)propanoate] | < 20
COc1cccc(-c2cc(OC)cc([C@H](CC(=O)O)NC(=O)Nc3c(O)ccn(C)c3=O)c2)c1 [1-564, sodium (S)-3-(3′,5-dimethoxybiphenyl-3-yl)-3-(3-(1-methyl-4-oxido-2-oxo-1,2-dihydropyridin-3-yl)ureido)propanoate] | < 20
COc1cc(-c2cccc(OC(F)(F)F)c2)cc([C@H](CC(=O)O)NC(=O)Nc2c(O)ccn(C)c2=O)c1 [1-565, sodium (S)-3-(5-methoxy-3′-(trifluoromethoxy)biphenyl-3-yl)-3-(3-(1-methyl-4-oxido-2-oxo-1,2-dihydropyridin-3-yl)ureido)propanoate] | < 20
COc1cc(-c2ccc(F)cc2F)cc([C@H](CC(=O)O)NC(=O)Nc2c(O)ccn(C)c2=O)c1 [1-566, sodium (S)-3-(2′,4′-difluoro-5-methoxybiphenyl-3-yl)-3-(3-(1-methyl-4-oxido-2-oxo-1,2-dihydropyridin-3-yl)ureido)propanoate] | < 20
COc1cccc(-c2cc(OC)cc([C@H](CC(=O)O)NC(=O)Nc3c(O)cc(C)n(C)c3=O)c2)c1 [1-567, sodium (S)-3-(3′,5-dimethoxybiphenyl-3-yl)-3-(3-(1,6-dimethyl-4-oxido-2-oxo-1,2-dihydropyridin-3-yl)ureido)propanoate] | < 20
COc1cc(-c2cccc(OC(F)(F)F)c2)cc([C@H](CC(=O)O)NC(=O)Nc2c(O)cc(C)n(C)c2=O)c1 [1-568, sodium (S)-3-(3-(1,6-dimethyl-4-oxido-2-oxo-1,2-dihydropyridin-3-yl)ureido)-3-(5-methoxy-3′-(trifluoromethoxy)biphenyl-3-yl)propanoate] | < 20

SMILES | IC50 [nM]
COc1cccc(-c2cc([C@H](CC(=O)O)NC(=O)Nc3c(O)cc(C)n(C)c3=O)ccc2C)c1 [1-569, sodium (S)-3-(3-(1,6-dimethyl-4-oxido-2-oxo-1,2-dihydropyridin-3-yl)ureido)-3-(3′-methoxy-6-methylbiphenyl-3-yl)propanoate] | < 20
Cn1ccc(O)c(NC(=O)N[C@@H](CC(=O)O)c2cc(-c3ccccc3)ccc2F)c1=O [1-570, sodium (S)-3-(4-fluorobiphenyl-3-yl)-3-(3-(1-methyl-4-oxido-2-oxo-1,2-dihydropyridin-3-yl)ureido)propanoate] | < 20
Cn1ccc(O)c(NC(=O)N[C@@H](CC(=O)O)c2cccc(-c3ccccc3)n2)c1=O [1-571, sodium (S)-3-(3-(1-methyl-4-oxido-2-oxo-1,2-dihydropyridin-3-yl)ureido)-3-(6-phenylpyridin-2-yl)propanoate] | < 20
Cc1cc(-c2c(C)cccc2C)cc([C@H](CC(=O)O)NC(=O)Nc2c(O)ccn(C)c2=O)c1 [1-573, sodium (S)-3-(3-(1-methyl-4-oxido-2-oxo-1,2-dihydropyridin-3-yl)ureido)-3-(2′,5,6′-trimethylbiphenyl-3-yl)propanoate] | < 20
Cc1cc(-c2ccc(F)cc2F)cc([C@H](CC(=O)O)NC(=O)Nc2c(O)ccn(C)c2=O)c1 [1-574, sodium (S)-3-(2′,4′-difluoro-5-methylbiphenyl-3-yl)-3-(3-(1-methyl-4-oxido-2-oxo-1,2-dihydropyridin-3-yl)ureido)propanoate] | < 20
Cc1cc(-c2ccc(F)cc2F)cc([C@H](CC(=O)O)NC(=O)Nc2c(O)cc(C)n(C)c2=O)c1 [1-575, sodium (S)-3-(2′,4′-difluoro-5-methylbiphenyl-3-yl)-3-(3-(1,6-dimethyl-4-oxido-2-oxo-1,2-dihydropyridin-3-yl)ureido)propanoate] | < 20
Cc1ccc([C@H](CC(=O)O)NC(=O)Nc2c(O)ccn(C)c2=O)cc1-c1cccc(OC(F)(F)F)c1 [1-576, sodium (S)-3-(6-methyl-3′-(trifluoromethoxy)biphenyl-3-yl)-3-(3-(1-methyl-4-oxido-2-oxo-1,2-dihydropyridin-3-yl)ureido)propanoate] | < 20
Cc1ccc([C@H](CC(=O)O)NC(=O)Nc2c(O)cc(C)n(C)c2=O)cc1-c1cccc(OC(F)(F)F)c1 [1-577, sodium (S)-3-(3-(1,6-dimethyl-4-oxido-2-oxo-1,2-dihydropyridin-3-yl)ureido)-3-(6-methyl-3′-(trifluoromethoxy)biphenyl-3-yl)propanoate] | < 20
Cc1cccc(C)c1-c1cc([C@H](CC(=O)O)NC(=O)Nc2c(O)cc(C)n(C)c2=O)ccc1F [1-578, sodium (S)-3-(3-(1,6-dimethyl-4-oxido-2-oxo-1,2-dihydropyridin-3-yl)ureido)-3-(6-fluoro-2′,6′-dimethylbiphenyl-3-yl)propanoate] | < 20
COc1cc(-c2ccc(F)cc2F)cc([C@H](CC(=O)O)NC(=O)Nc2c(O)cc(C)n(C)c2=O)c1 [1-581, sodium (S)-3-(2′,4′-difluoro-5-methoxybiphenyl-3-yl)-3-(3-(1,6-dimethyl-4-oxido-2-oxo-1,2-dihydropyridin-3-yl)ureido)propanoate] | < 20
Cc1cscc1-c1ccc([C@H](CC(=O)O)NC(=O)Nc2c(O)ccn(C)c2=O)s1 [1-584, sodium (S)-3-(4′-methyl-2,3′-bithiophen-5-yl)-3-(3-(1-methyl-4-oxido-2-oxo-1,2-di hydropyridin-3-yl)ureido)propanoate] | < 20
Cc1cscc1-c1ccc([C@H](CC(=O)O)NC(=O)Nc2c(O)cc(C)n(C)c2=O)s1 [1-585, sodium (S)-3-(3-(1,6-dimethyl-4-oxido-2-oxo-1,2-dihydropyridin-3-yl)ureido)-3-(4′-methyl-2,3′-bithiophen-5-yl)propanoate] | < 20
COc1cccc(-c2cc(C)cc([C@H](CC(=O)O)NC(=O)Nc3c(O)cc(C)n(C)c3=O)c2)c1 [1-586, sodium (S)-3-(3-(1,6-dimethyl-4-oxido-2-oxo-1,2-dihydropyridin-3-yl)ureido)-3-(3′-methoxy-5-methylbiphenyl-3-yl)propanoate] | < 20
Cc1cccc(C)c1-c1ccc([C@H](CC(=O)O)NC(=O)Nc2c(O)ccn(C)c2=O)s1 [1-587, sodium (S)-3-(5-(2,6-dimethylphenyl)thiophen-2-yl)-3-(3-(1-methyl-4-oxido-2-oxo-1,2-dihydropyridin-3-yl)ureido)propanoate] | < 20
Cc1cccc(C)c1-c1ccc([C@H](CC(=O)O)NC(=O)Nc2c(O)cc(C)n(C)c2=O)s1 [1-588, sodium (S)-3-(3-(1,6-dimethyl-4-oxido-2-oxo-1,2-dihydropyridin-3-yl)ureido)-3-(5-(2,6-dimethylphenyl)thiophen-2-yl)propanoate] | < 20
Cc1cccc(C)c1-c1ccc(F)c([C@H](CC(=O)O)NC(=O)Nc2c(O)cc(C)n(C)c2=O)c1 [1-589, sodium (S)-3-(3-(1,6-dimethyl-4-oxido-2-oxo-1,2-dihydropyridin-3-yl)ureido)-3-(4-fluoro-2′,6′-dimethylbiphenyl-3-yl)propanoate] | < 20
